{"source": "paper PMC8552062", "about": "“Contributions of UDP-Glucuronosyltransferases to Human Hepatic and Intestinal Metabolism of Ticagrelor and Inhibition of UGTs and Cytochrome P450 Enzymes by Ticagrelor and its Glucuronidated Metabolite” (Frontiers in Pharmacology, 2021)", "key": {"CYP2C19": {"biological_target": "T1, CYP2C19 (Homo sapiens, UniProt P33261)", "T1 construct": "co-incubation ticagrelor-O-Glu with selective P450 probe substrates in HLM; tissue XenoTech LLC; host or cells: pooled human liver microsomes", "T1 sequence (P33261 whole entry)": "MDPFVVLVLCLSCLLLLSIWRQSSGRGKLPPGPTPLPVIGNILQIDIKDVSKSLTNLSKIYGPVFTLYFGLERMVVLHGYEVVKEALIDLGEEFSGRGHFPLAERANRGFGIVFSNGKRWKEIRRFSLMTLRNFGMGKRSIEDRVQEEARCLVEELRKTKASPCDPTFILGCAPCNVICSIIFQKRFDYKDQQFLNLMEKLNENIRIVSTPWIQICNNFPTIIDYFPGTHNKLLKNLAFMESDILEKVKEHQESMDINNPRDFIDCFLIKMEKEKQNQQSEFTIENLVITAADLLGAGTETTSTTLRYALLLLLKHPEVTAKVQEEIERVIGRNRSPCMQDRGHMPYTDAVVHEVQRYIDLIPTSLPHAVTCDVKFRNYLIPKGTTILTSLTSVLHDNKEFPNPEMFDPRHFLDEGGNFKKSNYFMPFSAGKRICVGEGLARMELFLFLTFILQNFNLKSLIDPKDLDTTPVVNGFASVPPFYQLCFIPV", "test": "CYP2C19 inhibition in HLM ([S]-mephenytoin 4′-hydroxylase)", "type": "in vitro ADME", "experimental": "The potential inhibitory effects of ticagrelor-O-Glu on the activities of major CYPs, i.e., CYP2B6, CYP2C8, CYP2C9, CYP2C19, CYP2D6, and CYP3A4, were evaluated by co-incubation ticagrelor-O-Glu with selective P450 probe substrates in HLM. Each incubation mixture containing 0.2 mg/ml HLM, ticagrelor-O-Glu and respective substrate (the final substrate concentrations are close to or less than the Km values: 150 μM bupropion, 1.26 μM amodiaquine, 10 μM diclofenac, 20 μM mephenytoin, 20 μM dextromethorphan and 80 μM testosterone (in house data)) in potassium phosphate buffer (100 mM, pH 7.4) was pre-incubated at 37°C for 5 min. Then, NADPH (10 mM) was added to initiate the reaction. The final volume of the incubation mixture was 100 μl. After incubation at 37°C for specific time points, the reaction was terminated by the addition of 200 μl of ice-cold methanol solution with internal standards (diazepam and furafylline). Preliminary screening experiments with selected concentrations of ticagrelor-O-Glu (0, 1, 10, or 100 μM of the final concentration) were carried out to determine the inhibition potency. For those that produced approximately 50% inhibition of CYPs enzyme activities at a ticagrelor-O-Glu concentration between 1 and 100 μM, IC50 was further determined with various concentrations of ticagrelor-O-Glu (0, 1, 5, 10, 20, 50, and 100 μM). All the experiments were performed in triplicates. The supernatant was obtained after centrifugation at 14,000 rpm for 10 min and injected into LC-MS/MS for the analysis of the respective metabolites. The formation of respective metabolites was determined to reflect P450 isoform activities. The metabolites quantified for CYP2B6, CYP2C8, CYP2C9, CYP2C19, CYP2D6, and CYP3A4 were hydroxy bupropion, N-Desethyl amodiaquine, 4′-hydroxylation diclofenac, S-4-hydroxy mephenytoin, dextrorphan and 6β-hydroxy testosterone, respectively.\nThe percent inhibition relative to the control was calculated to indicate the UGTs or CYPs inhibition. […]"}, "UGT1A4": {"biological_target": "T2, UGT1A4 (Homo sapiens, UniProt P22310)", "T2 sequence (P22310 29-534)": "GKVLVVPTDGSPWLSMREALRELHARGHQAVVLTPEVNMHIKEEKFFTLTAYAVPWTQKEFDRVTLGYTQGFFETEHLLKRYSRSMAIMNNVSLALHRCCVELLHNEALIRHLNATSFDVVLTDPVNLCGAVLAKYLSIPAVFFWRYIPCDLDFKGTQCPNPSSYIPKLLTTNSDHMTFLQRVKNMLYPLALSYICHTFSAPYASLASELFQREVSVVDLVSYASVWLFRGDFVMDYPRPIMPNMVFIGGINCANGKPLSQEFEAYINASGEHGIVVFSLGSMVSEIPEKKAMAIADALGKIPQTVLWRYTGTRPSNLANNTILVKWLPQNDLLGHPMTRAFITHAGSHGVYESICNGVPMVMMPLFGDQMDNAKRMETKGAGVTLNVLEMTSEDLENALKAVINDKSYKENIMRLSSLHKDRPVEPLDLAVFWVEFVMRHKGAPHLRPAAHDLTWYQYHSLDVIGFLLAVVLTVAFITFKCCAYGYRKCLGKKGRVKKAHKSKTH", "test": "Ticagrelor glucuronidation by recombinant human UGT1A4", "type": "in vitro ADME", "set-up": "purchased BD Gentest; host or cells: baculovirus-infected insect cells", "settings": "recombinant human UGT1A4, pH 7.4", "experimental": "Ticagrelor glucuronidation was investigated in an in vitro incubation system by using HLM, HIM, and recombinant human UGTs. The incubation system consisted of enzyme sources (HLM, HIM, or human recombinant UGTs), various concentrations of ticagrelor (dissolved in 50% methanol, 1% v/v, 1, 2, 5, 10, 20, 50, 100, 200, 500 μM of final concentration), alamethicin (50 μg/mg protein), 5 mM MgCl2, 100 mM tris-HCL buffer (pH 7.4), and 5 mM UDPGA in a total volume of 100 μl. Alamethicin is a pore-forming polypeptide used to activate UGTs in HLM and HIM ([Fisher et al., 2000]). Preliminary studies were conducted to determine the optimal protein concentrations and incubation times. Linear conditions of ticagrelor-O-Glu formation from ticagrelor, i.e., HLM, 0.2 mg of protein/ml and 60 min, HIM, 0.2 mg of protein/ml and 60 min, and recombinant human UGTs, 0.2 mg of protein/ml and 60 min were selected. The incubation mixture without UDPGA was placed on ice for 15 min to activate UGT by alamethicin. […]\nKinetic analyses were performed using the mean values of triplicate determinations with either pooled HLM, HIM, or recombinant human UGTs. All data were analyzed by nonlinear regression analysis using the GraphPad Prism 6 (GraphPad Software Inc., CA, United States). […] Intrinsic clearance (CLint) was calculated by dividing Vmax by Km."}}, "data": [{"smiles": "CCCSc1nc(N[C@@H]2C[C@H]2c2ccc(F)c(F)c2)c2nnn([C@@H]3C[C@H](OCCO[C@@H]4O[C@H](C(=O)O)[C@@H](O)[C@H](O)[C@H]4O)[C@@H](O)[C@H]3O)c2n1", "note": "[Ticagrelor-O-Glu, ticagrelor-O-glucuronide]", "values": [{"measurement": "IC50", "setting": "CYP2C19; CYP2C19, [S]-mephenytoin 4′-hydroxylase, HLM 0.2 mg/ml", "value": 18.8, "unit": "µM"}, {"measurement": "inhibition at 10 μM", "setting": "CYP2C19; human, human liver microsomes, pH 7.4, probe mephenytoin (20 μM), S-4-hydroxy mephenytoin formation, HLM, 10 μM ticagrelor-O-Glu, read-out: inhibition of CYP2C19 enzyme activity", "value": 32.7, "unit": "%"}, {"measurement": "inhibition at 100 µM", "setting": "CYP2C19; human, human liver microsomes, pH 7.4, probe mephenytoin (20 μM), S-4-hydroxy mephenytoin formation, HLM, 100 μM ticagrelor-O-Glu, read-out: inhibition of CYP2C19 enzyme activity", "value": 83.6, "unit": "%"}]}, {"smiles": "CCCSc1nc(N[C@@H]2C[C@H]2c2ccc(F)c(F)c2)c2nnn([C@@H]3C[C@H](OCCO)[C@@H](O)[C@H]3O)c2n1", "note": "[Ticagrelor]", "values": [{"measurement": "microsomal CLint", "setting": "UGT1A4", "value": 0.04, "unit": "µL/min/mg"}]}]}
